Tested on: NOMO1
Assay: cell viability relative to DMSO control; higher = less cytotoxic
Conditions: 48 h
Method in brief: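 Viability is expressed as a percentage of DMSO wells within each plate, and cell-free wells serve as background. Seeding densities in the 1536-well plates (5 μl) were 500 cells/well for NOMO1 or SEM leukemia cells and 1000 cells/well for P12-Ichikawa. Each line was adapted for at least four passages in each medium. Library compounds in DMSO were pin-dosed at 47 μM to 0.79 nM (11 points, threefold), and CellTiter-Glo One luminescence was read after 48 h at 37°C.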

[1] = HPLM + 10% dialyzed FBS, 0.000781 µM
[2] = HPLM + 10% dialyzed FBS, 0.00234 µM
[3] = HPLM + 10% dialyzed FBS, 0.00702 µM
[4] = HPLM + 10% dialyzed FBS, 0.0211 µM
[5] = HPLM + 10% dialyzed FBS, 0.0632 µM
[6] = HPLM + 10% dialyzed FBS, 0.19 µM
[7] = HPLM + 10% dialyzed FBS, 0.569 µM
[8] = HPLM + 10% dialyzed FBS, 1.71 µM
[9] = HPLM + 10% dialyzed FBS, 5.12 µM
[10] = HPLM + 10% dialyzed FBS, 15.4 µM
[11] = HPLM + 10% dialyzed FBS, 46.1 µM
[12] = RPMI 5 mM glucose + 10% FBS, 0.000781 µM
[13] = RPMI 5 mM glucose + 10% FBS, 0.00234 µM
[14] = RPMI 5 mM glucose + 10% FBS, 0.00702 µM
[15] = RPMI 5 mM glucose + 10% FBS, 0.0211 µM
[16] = RPMI 5 mM glucose + 10% FBS, 0.0632 µM
[17] = RPMI 5 mM glucose + 10% FBS, 0.19 µM
[18] = RPMI 5 mM glucose + 10% FBS, 0.569 µM
[19] = RPMI 5 mM glucose + 10% FBS, 1.71 µM
[20] = RPMI 5 mM glucose + 10% FBS, 5.12 µM
[21] = RPMI 5 mM glucose + 10% FBS, 15.4 µM
[22] = RPMI 5 mM glucose + 10% FBS, 46.1 µM
[23] = RPMI 5 mM glucose + 10% dialyzed FBS, 0.000781 µM
[24] = RPMI 5 mM glucose + 10% dialyzed FBS, 0.00234 µM
[25] = RPMI 5 mM glucose + 10% dialyzed FBS, 0.00702 µM
[26] = RPMI 5 mM glucose + 10% dialyzed FBS, 0.0211 µM
[27] = RPMI 5 mM glucose + 10% dialyzed FBS, 0.0632 µM
[28] = RPMI 5 mM glucose + 10% dialyzed FBS, 0.19 µM
[29] = RPMI 5 mM glucose + 10% dialyzed FBS, 0.569 µM
[30] = RPMI 5 mM glucose + 10% dialyzed FBS, 1.71 µM
[31] = RPMI 5 mM glucose + 10% dialyzed FBS, 5.12 µM
[32] = RPMI 5 mM glucose + 10% dialyzed FBS, 15.4 µM
[33] = RPMI 5 mM glucose + 10% dialyzed FBS, 46.1 µM

| Compound | cell viability [1] [%] | cell viability [2] [%] | cell viability [3] [%] | cell viability [4] [%] | cell viability [5] [%] | cell viability [6] [%] | cell viability [7] [%] | cell viability [8] [%] | cell viability [9] [%] | cell viability [10] [%] | cell viability [11] [%] | cell viability [12] [%] | cell viability [13] [%] | cell viability [14] [%] | cell viability [15] [%] | cell viability [16] [%] | cell viability [17] [%] | cell viability [18] [%] | cell viability [19] [%] | cell viability [20] [%] | cell viability [21] [%] | cell viability [22] [%] | cell viability [23] [%] | cell viability [24] [%] | cell viability [25] [%] | cell viability [26] [%] | cell viability [27] [%] | cell viability [28] [%] | cell viability [29] [%] | cell viability [30] [%] | cell viability [31] [%] | cell viability [32] [%] | cell viability [33] [%] |
| --- | --- | --- | --- | --- | --- | --- | --- | --- | --- | --- | --- | --- | --- | --- | --- | --- | --- | --- | --- | --- | --- | --- | --- | --- | --- | --- | --- | --- | --- | --- | --- | --- | --- |
| C[C@H]1C[C@H]2[C@@H]3CCC4=CC(=O)C=C[C@]4(C)[C@H]3C(=O)C[C@]2(C)[C@@]1(O)C(=O)CO | 89.9 | 80.3 | 81.2 | 103 | 86.3 | 109 | 98.9 | 96 | 86.8 | 99.8 | 83 | 82.7 | 90.2 | 86.9 | 91.6 | 80.8 | 79.9 | 81.3 | 83.8 | 86.5 | 86.3 | 92.2 | 83 | 78.4 | 77.9 | 56.5 | 78.8 | 82.4 | 99.8 | 85.1 | 94.4 | 78 | 93.2 |
| O=[S+]([O-])(/N=C/c1c(O)ccc2ccccc12)c1cccs1 |  |  |  |  |  |  |  |  |  |  |  | 113 | 126 | 111 | 124 | 129 | 129 | 114 | 113 | 126 | 107 | 126 |  |  |  |  |  |  |  |  |  |  |  |
| CN(C)/[N+]([O-])=N/Oc1cc(ON[N+](=O)N2CCN(C(=O)c3cc(Cc4n[nH]c(=O)c5ccccc45)ccc3F)CC2)c([N+](=O)[O-])cc1[N+](=O)[O-] | 101 | 94.9 | 100 | 100 | 115 | 119 | 109 | 104 | 102 | 126 | 117 | 99.1 | 97.4 | 103 | 114 | 99.4 | 102 | 113 | 122 | 119 | 101 | 106 | 93.9 | 112 | 101 | 107 | 118 | 114 | 103 | 109 | 123 | 115 | 120 |
| O=C([O-])[C@H](CC(=O)N1C[C@H]2CCCC[C@H]2C1)Cc1ccccc1 | 116 | 120 | 135 | 133 | 138 | 123 | 128 | 145 | 134 | 156 | 122 |  |  |  |  |  |  |  |  |  |  |  |  |  |  |  |  |  |  |  |  |  |  |
| CN(c1nccc(=O)[nH]1)C1CCN(c2nc3ccccc3n2Cc2ccc(F)cc2)CC1 | 90 | 104 | 116 | 117 | 128 | 124 | 116 | 120 | 105 | 111 | 99.1 | 104 | 101 | 112 | 104 | 114 | 115 | 130 | 126 | 117 | 108 | 105 | 109 | 108 | 105 | 121 | 114 | 116 | 122 | 121 | 114 | 131 | 90.8 |
| C/C(=C\c1csc(C)n1)[C@@H]1C[C@@H]2O[C@@H]2CCC[C@H](C)[C@H](O)[C@@H](C)C(=O)C(C)(C)[C@@H](O)CC(=O)O1 | 33.3 | 25.8 | 27.8 | 28.4 | 29.2 | 31.6 | 30.1 | 30.5 | 34.8 | 34 | 30.7 | 27.2 | 19.5 | 17.9 | 20.3 | 18.1 | 18 | 17.8 | 18.7 | 18.1 | 22.8 | 19.8 | 84.5 | 20.9 | 20 | 21.6 | 23.3 | 20.9 | 21.7 | 25.8 | 24.2 | 31.1 | 23.3 |
| C[N+](C)(C)CC(=O)O.[Cl-] | 63.1 | 90.5 | 85 | 94.9 | 94.4 | 86.3 | 95.6 | 89.5 | 104 | 86.5 | 93.9 | 77.1 | 86 | 80.4 | 81.6 | 85.5 | 87.6 | 87.8 | 80.3 | 83.2 | 84.2 | 81.1 | 68.8 | 88.1 | 79.7 | 89.3 | 90.8 | 89.1 | 92.3 | 91.5 | 83.8 | 92 | 84.7 |
| C/C(=C\c1csc(C)n1)[C@@H]1C[C@@H]2O[C@]2(C)CCC[C@H](C)[C@H](O)[C@@H](C)C(=O)C(C)(C)[C@@H](O)CC(=O)O1 | 22.6 | 28.6 | 32 | 27.8 | 29.6 | 27.8 | 29.6 | 35 | 25.2 | 27.6 | 31.3 | 14.1 | 18.3 | 20.6 | 18.3 | 20.3 | 15.9 | 16.8 | 19.2 | 15.3 | 14.5 | 14.9 | 18.1 | 22.2 | 22.9 | 39.2 | 23.9 | 24.5 | 21.8 | 21.4 | 21.9 | 25 | 20 |
| COC1=CC(=CC=C1)C2=CC=C(NC(=O)/C3=C(/CCC3)C(O)=O)C(=C2)F | 122 | 114 | 128 | 113 | 105 | 87.8 | 115 | 112 | 103 | 100 | 92.1 | 102 | 109 | 103 | 97.8 | 96.3 | 116 | 99.2 | 109 | 104 | 96 | 84.7 | 115 | 105 | 122 | 121 | 120 | 121 | 113 | 107 | 106 | 102 | 63.8 |
| Cn1c(=O)c2[nH]cnc2n(C)c1=O | 120 | 111 | 121 | 122 | 92.5 | 115 | 120 | 106 | 110 | 102 | 84.8 | 114 | 103 | 103 | 104 | 94 | 100 | 101 | 113 | 95.8 | 99 | 93.6 | 101 | 108 | 104 | 100 | 108 | 96.3 | 92.2 | 99.7 | 106 | 97.5 | 87.7 |
| O=C(NCCCNc1nc(Nc2cccc(NC(=O)N3CCCC3)c2)ncc1I)c1cccs1 | 81.8 | 91 | 88.4 | 79.3 | 80.9 | 72 | 91.5 | 51.5 | 67.9 | 84.3 | 78.7 | 80.4 | 89.7 | 78 | 81.5 | 76.1 | 76.9 | 80 | 65.9 | 77 | 83.1 | 89.9 | 89.1 | 89.2 | 89.3 | 75 | 84.6 | 84.4 | 80 | 59.1 | 83.1 | 75.7 | 76.9 |
| CC1(C)Cc2c(sc(NC(=S)NC(=O)c3ccccc3)c2C(=O)O)CO1 | 102 | 107 | 100 | 117 | 120 | 114 | 115 | 112 | 114 | 94.5 | 95.1 | 115 | 111 | 105 | 101 | 105 | 96.6 | 118 | 106 | 115 | 101 | 91.5 | 87.7 | 102 | 96.3 | 108 | 109 | 103 | 121 | 109 | 101 | 101 | 102 |
| C[C@@H](NCc1cc2ccccc2[nH]1)c1cccc2ccccc12 | 88.3 | 82.2 | 91.6 | 90.6 | 94.6 | 95.5 | 91.9 | 95.2 | 97.1 | 92.3 | 100 | 84.3 | 87.5 | 80.1 | 86.1 | 90.5 | 88.1 | 97.4 | 89.8 | 95.5 | 94.5 | 91.8 | 93.6 | 89.8 | 89 | 87.8 | 84.2 | 102 | 102 | 93.7 | 97 | 92.3 | 102 |
| C=C[C@H]1CN2CCC1C[C@@H]2[C@@H](O)c1ccnc2ccccc12 (some centres undefined) | 97 | 109 | 105 | 93.7 | 99.7 | 107 | 92.7 | 97.1 | 86 | 93.1 | 74.9 | 90.3 | 90.6 | 94.1 | 85.4 | 91.4 | 91.1 | 84.9 | 86.1 | 89.9 | 83.8 | 85.2 | 101 | 114 | 96.7 | 99.3 | 92.6 | 96 | 85.2 | 99.1 | 84.1 | 85.4 | 76.8 |
| CN1/C=C(\N=C(NC2=CC=C(C=C2)C(=O)N3CCOCC3)/C1=O)/C4=C(C)C(=CC=C4)NC(=O)C5=CC=C(C=C5)C(C)(C)C | 91.6 | 114 | 102 | 85.2 | 103 | 111 | 112 | 110 | 97.2 | 94.2 | 70.7 | 91.4 | 84.4 | 99.5 | 89.5 | 98.3 | 88.7 | 100 | 84.9 | 80.6 | 88.1 | 85.1 | 97.6 | 92.9 | 96.2 | 95.9 | 106 | 100 | 107 | 94.6 | 93.1 | 78.4 | 77.2 |
| O=C(C1CC1)N1CC[C@@H](Cn2c(-c3ccc(-c4ccc5occc5c4)cc3)nc3cnccc32)C1 | 93.7 | 128 | 117 | 112 | 122 | 135 | 121 | 134 | 117 | 123 | 82.6 | 117 | 101 | 104 | 102 | 111 | 104 | 106 | 115 | 119 | 109 | 113 | 101 | 115 | 107 | 129 | 120 | 112 | 119 | 114 | 109 | 110 | 100 |
